Test results published in PubChem BioAssay AID194 (DTP/NCI, 2004).
Values joined by “and” are separate entries in the source; they are usually repeats but may differ in a detail not shown here. Equal entries are not always repeated. Records with an inconclusive call do not appear. Rule for the calls: active = survival T/C of 150% or more; inactive = T/C below 125% in these data.

System: BDF1 mice, B16 melanoma s.c., survival/tumor T/C
Test: NCI In Vivo Anticancer Drug Screen. Data for tumor model B16 Melanoma (subcutaneous) in B6D2F1 (BDF1) mice
Details: endpoint: median survival time, higher = longer survival
Method: The antitumor activity of compounds was measured in mice bearing transplantable tumors. Survival or tumor size were measured and the results are expressed as the measurement made in the treated group (T) divided by the measurement made in the vehicle treated control group (C). The tumor model used in this assay is B16 Melanoma (subcutaneous) in B6D2F1 (BDF1) mice

Measured: T/C

O=C(O)CCC(=O)O
inactive: dose: 5.0 mg/kg/injection, schedule: Q01DX009 (ip), vehicle: water 117 % of control and 102 % of control | dose: 40.0 mg/kg/injection, schedule: Q01DX009 (ip), vehicle: water 114 % of control [middle of 6 runs] | dose: 80.0 mg/kg/injection, schedule: Q01DX009 (ip), vehicle: water 97 % of control [middle of 5 runs] | dose: 160.0 mg/kg/injection, schedule: Q01DX009 (ip), vehicle: water 96 % of control [middle of 4 runs]

OC(CCl)CN1CC[N+]2(CC1)CC[N+]1(CCN(CC(O)CCl)CC1)CC2 (stereo not drawn)
active: dose: 134.0 mg/kg/injection, schedule: Q01DX007 (ip), vehicle: saline 162 % of control | dose: 300.0 mg/kg/injection, schedule: Q01DX007 (ip), vehicle: saline 173 % of control | dose: 300.0 mg/kg/injection, schedule: Q01DX009 (ip), vehicle: saline 161 % of control
inactive: dose: 200.0 mg/kg/injection, schedule: Q01DX009 (ip), vehicle: saline 112 % of control | dose: 670.0 mg/kg/injection, schedule: Q01DX001 (ip), vehicle: saline 108 % of control | dose: 1000.0 mg/kg/injection, schedule: Q01DX001 (ip), vehicle: saline 92 % of control | dose: 1500.0 mg/kg/injection, schedule: Q01DX001 (ip), vehicle: saline 120 % of control

O=NN(CCCl)C(=O)NC1CCC(=O)NC1=O (stereo not drawn)
active: dose: 4.0 mg/kg/injection, schedule: Q01DX009 (ip), vehicle: Klucel (hydroxypropylcellulose) (HPC) 168 % of control and 228 % of control | dose: 17.0 mg/kg/injection, schedule: Q01DX001 (ip), vehicle: gum acacia 177 % of control
inactive: dose: 1.0 mg/kg/injection, schedule: Q01DX009 (ip), vehicle: Klucel (hydroxypropylcellulose) (HPC) 115 % of control | dose: 1.56 mg/kg/injection, schedule: Q01DX007 (ip), vehicle: Klucel (hydroxypropylcellulose) (HPC) 97 % of control | dose: 4.32 mg/kg/injection, schedule: Q01DX007 (ip), vehicle: Klucel (hydroxypropylcellulose) (HPC) 98 % of control | dose: 7.2 mg/kg/injection, schedule: Q01DX007 (ip), vehicle: Klucel (hydroxypropylcellulose) (HPC) 121 % of control | dose: 23.0 mg/kg/injection, schedule: Q01DX001 (ip), vehicle: gum acacia 89 % of control

CCN(CC)CCCC(C)Nc1c2ccc(Cl)cc2nc2ccc(OC)cc12 (stereo not drawn)
inactive: dose: 8.0 mg/kg/injection, schedule: Q01DX009 (ip), vehicle: saline with Tween-80 116 % of control | dose: 8.0 mg/kg/injection, schedule: Q01DX009 (ip), vehicle: saline 96 % of control | dose: 8.0 mg/kg/injection, schedule: Q01DX009 (ip), vehicle: suspension in saline 119 % of control | dose: 16.0 mg/kg/injection, schedule: Q01DX009 (ip), vehicle: saline with Tween-80 96 % of control and 118 % of control | dose: 16.0 mg/kg/injection, schedule: Q01DX009 (ip), vehicle: saline 100 % of control | dose: 16.0 mg/kg/injection, schedule: Q01DX009 (ip), vehicle: suspension in saline 121 % of control | dose: 32.0 mg/kg/injection, schedule: Q01DX009 (ip), vehicle: saline with Tween-80 100 % of control and 108 % of control | dose: 32.0 mg/kg/injection, schedule: Q01DX009 (ip), vehicle: saline 99 % of control | dose: 32.0 mg/kg/injection, schedule: Q01DX009 (ip), vehicle: suspension in saline 116 % of control | dose: 64.0 mg/kg/injection, schedule: Q01DX009 (ip), vehicle: saline with Tween-80 102 % of control and 110 % of control | dose: 64.0 mg/kg/injection, schedule: Q01DX009 (ip), vehicle: saline 95 % of control | dose: 64.0 mg/kg/injection, schedule: Q01DX009 (ip), vehicle: suspension in saline 121 % of control | dose: 128.0 mg/kg/injection, schedule: Q01DX009 (ip), vehicle: saline with Tween-80 102 % of control | dose: 128.0 mg/kg/injection, schedule: Q01DX009 (ip), vehicle: suspension in saline 119 % of control

C[n+]1c2ccccc2c(Nc2ccc(NS(=O)(=O)CCCCN=C(N)N)cc2)c2ccc(N)cc21
inactive: dose: 1.5 mg/kg/injection, schedule: Q01DX009 (sc), vehicle: saline 96 % of control | dose: 3.0 mg/kg/injection, schedule: Q01DX009 (sc), vehicle: saline 112 % of control | dose: 6.0 mg/kg/injection, schedule: Q01DX009 (sc), vehicle: saline 108 % of control

CC[CH2][Sn]([CH2]CC)([CH2]CC)[O][Sn]([CH2]CC)([CH2]CC)[CH2]CC
inactive: dose: 0.5 mg/kg/injection, schedule: Q01DX009 (ip), vehicle: saline 123 % of control | dose: 1.0 mg/kg/injection, schedule: Q01DX009 (ip), vehicle: saline 114 % of control | dose: 2.0 mg/kg/injection, schedule: Q01DX009 (ip), vehicle: saline 100 % of control
